Experimental findings from US20060188557A1, “Prepartaion for external percutaneous administration containing non-steroidal anti-inflammatory drug and interleukin-1 alpha production inhibitor” (Hisamitsu Pharmaceutical Co., Inc., priority 2003, published 2006) are described below.

Experiment [1] relates to auricle of a Balb/c mouse. Description: In vivo photosensitivity test (ketoprofen-induced ear thickness increase after UVA). Particulars: 20 μL on auricle, 40 J/cm^2 UVA, 24 hours. The method, then:
The following experiment was conducted with reference to the method of Gerberick et al. (Food Chem. Toxicol., 27, 813-819(1989)) with some modifications. First, ethanol was used to prepare a mixed solution containing the test substances shown in Tables 4 and 5 {tert-butylhydroxyanisole (BHA), di-tert-butylhydroxytoluene […], propyl gallate} and 2% ketoprofen. As a control a 2% ketoprofen solution was prepared using ethanol. Next, 20 μL of each prepared solution (N=8) was applied onto the auricle of a Balb/c mouse (female, 9-11 weeks old), prior to irradiation with 40 J/cm^2 UVA. When 24 hours had passed after UVA irradiation, the ear thickness of the mouse was measured and the increase with respect to the initial ear thickness was calculated. […] The abbreviation “PG” in the tables stands for “propyl gallate”.

Experiment [2] concerns heparin-added rabbit venous blood (whole blood). Kind of experiment: In vitro phototoxicity test (ketoprofen-associated photohemolysis). The format is cell-based. Particulars: Oryctolagus cuniculus, light or radiation study, with ketoprofen, 7.5 J/cm^2 UVA. The method, then:
The following experiment was conducted according to “Guidelines for basic biological tests of medical materials and devices”, Part VII “Hemolysis Test”. First, each of the test substances listed in Table I (Example 1), Table 2 (Example 2) and Table 3 (Example 3) {tert-butylhydroxyanisole (BHA), di-tert-butylhydroxytoluene (BHT), thymol, propyl gallate} and ketoprofen were dissolved in N,N-dimethylformamide (DMF) to 20-fold compared to the concentration shown in the tables (1000 μg/mL of ketoprofen). Also, after further diluting these solutions 5-fold in phosphate buffered saline (PBS), equal amounts of each test substance solution and the ketoprofen solution were combined. As a control, ketoprofen alone was dissolved in DMF to […], and diluted 10-fold with PBS to prepare a solution. These solutions were dispensed in 1 mL portions into a 24-well multiwell plate, and then 1 mL of PBS containing 40 μL of heparin-added rabbit venous blood (whole blood) per 5 mL was added to each to prepare reaction solutions.
An ultraviolet irradiating apparatus (UVP Lamp Fixture, UVP) equipped with two ultraviolet lamps (FL15BLB, Sankyo Denki) was used to irradiate the reaction solutions with 7.5 J/cm^2 UVA (ultraviolet rays of wavelength 320-400 nm) in an incubator set to 37° C., with the cover removed from the plate containing the reaction solutions (UVA is associated with drug-induced photosensitivity). During the ultraviolet irradiation, a 3 mm-thick glass plate was placed between the light source and the reaction solutions to cut ultraviolet rays of 320 nm wavelength and shorter. The incubation time was 60 minutes, including the irradiation time. After completion of the reaction, the solutions were centrifuged, the obtained 100 μL of supernatant (N=3) was transferred to a 96-well assay plate and the absorbance at 540 nm (Abs540) was measured as an index of hemolysis. The effects of each of the test substances in Tables 1 to 3 on ketoprofen-associated photohemolysis were evaluated as the hemolysis inhibition (%) with respect to the control group, calculated using Abs540.

Experiment [3] has as its system IL-1α production in HPV16 immobilized human adult keratinocytes (KERTr). Description: IL-1α production in ketoprofen-treated, UVA-irradiated keratinocytes (ELISA). Type of experiment: cell-based. Particulars: 75 μM ketoprofen, 6-8 J/cm^2 UVA, 24 hours after irradiation. The method, then: After adding a mixed solution of 75 μM ketoprofen and different concentrations of propyl gallate to a culturing medium (EpiLife™ Serum Free Medium E0151) (Cascade Biologics, Inc.) containing HPV16 immobilized human adult keratinocytes (KERTr) KUK001 (ATCC Co., Rockville, Md.), the mixture was incubated for 2 hours at […] in 5% carbon dioxide/95% air, and then irradiated with 6-8 J/cm^2 UVA. When 24 hours had passed after UVA irradiation, the IL-1α concentration of the culture supernatant was evaluated with an ELISA kit (R&D Systems, Inc.). As a control, there was used the above-mentioned culturing medium to which a solution of 75 μM ketoprofen alone was added, which was incubated for 2 hours at 37° C. in 5% carbon dioxide/95% air, and which was not irradiated with UVA.
An experiment was conducted in the same manner as Example 6 using di-tert-butylhydroxytoluene (BHT) instead of propyl gallate.
A general note: ELISA stands for enzyme-linked immunosorbent assay.

The nature of experiment [4]: Synergistic phototoxicity-reducing action of combinations (method not described).

In the case of `COc1ccc(O)cc1C(C)(C)C` [BHA, 2-tert-butyl-4-oxyanisole], the “Auricular edema inhibition (%)” value in experiment [1] (0.5% BHA with 2% ketoprofen in ethanol) turned out to be 24%.

For `Cc1cc(C(C)(C)C)c(O)c(C(C)(C)C)c1` [BHT, 2,6-di-tert-butyl-p-cresol], the “Auricular edema inhibition (%)” value in experiment [1] (1.0% BHT with 2% ketoprofen in ethanol) is listed as 16%. In experiment [2] (BHT 0.125 μg/mL, propyl gallate 0), the hemolysis inhibition at 0.125 µg/mL was -3.7%. In addition, in experiment [2] (BHT 0.25 μg/mL, propyl gallate 0), the hemolysis inhibition at 0.25 µg/mL was found to be 9.6%. Also, the hemolysis inhibition at 0.5 µg/mL in experiment [2] (BHT 0.5 μg/mL, propyl gallate 0) amounted to 49.6%. Besides, in experiment [2] (BHT 1 μg/mL, propyl gallate 0), the hemolysis inhibition at 1 µg/mL came to 88.9%. The “IL-1α production (IL-1α concentration in the culture supernatant)” value in experiment [3] is on record as “IL-1α production is inhibited”.

On to `CCCOC(=O)c1cc(O)c(O)c(O)c1` [Propyl gallate, propyl gallate], for which the “Auricular edema inhibition (%)” value in experiment [1] (Table 4: 0.2% PG with 2% ketoprofen in ethanol) came out at 21%; in experiment [1] (Table 5: 0.2% PG with 2% ketoprofen in ethanol), 19%. Further, the hemolysis inhibition at 0.5 µg/mL in experiment [2] (Table 1: propyl gallate 0.5 μg/mL, BHA 0) amounted to 25.5%; in experiment [2] (Table 2: propyl gallate 0.5 μg/mL, BHT 0) it was 3.6%; in experiment [2] (Table 3: propyl gallate 0.5 μg/mL, thymol 0), 2.1%. For the same compound, the hemolysis inhibition at 1 µg/mL in experiment [2] (Table 1: propyl gallate 1 μg/mL, BHA 0) was found to be 66%; in experiment [2] (Table 2: propyl gallate 1 μg/mL, BHT 0) it was 45.4%; in experiment [2] (Table 3: propyl gallate 1 μg/mL, thymol 0), 63.8%. Further, the hemolysis inhibition at 2 µg/mL in experiment [2] (Table 1: propyl gallate 2 μg/mL, BHA 0) came to 88.9%; in experiment [2] (Table 2: propyl gallate 2 μg/mL, BHT 0), 91.2%; in experiment [2] (Table 3: propyl gallate 2 μg/mL, thymol 0), 88%. Further, in experiment [3], the “IL-1α production (IL-1α concentration in the culture supernatant)” value is reported as “IL-1α production is inhibited”.

For `Cc1ccc(C(C)C)c(O)c1` [Thymol, 6-isopropyl-m-cresol], the hemolysis inhibition at 0.5 µg/mL in experiment [2] (thymol 0.5 μg/mL, propyl gallate 0) is 10.8%. In addition, the hemolysis inhibition at 1 µg/mL in experiment [2] (thymol 1 μg/mL, propyl gallate 0) worked out at 41.1%. The hemolysis inhibition at 2 µg/mL in experiment [2] (thymol 2 μg/mL, propyl gallate 0) amounted to 70.7%.

Take `CCCCCCCCC(=O)NCc1ccc(O)c(OC)c1` [nonylic vanillylamide]: the “synergistic effect on the phototoxicity-reducing action” value in experiment [4] is “No such synergistic effect is observed”.
